Test system: fresh human Peripheral Blood Mononuclear Cells (hPBMCs)
Test: Cytokine production (IFNα, IL-6, IL-1β) by hPBMCs in basal condition and after TLR-9 stimulation (ODN2216)
Assay type: cell-based
Details: TLR-9-stimulated hPBMCs, 24 h; PD0325901 1 μM + ATO 2.5 μM

## O=C(NOC[C@H](O)CO)c1ccc(F)c(F)c1Nc1ccc(I)cc1F [PD0325901]
  production of IFNα after inhibition by ATO: did not restore

From patent publication US20240350538A1, “Use of an arsenic compound for treating a short or long cytokine storm in various autoimmune/inflammatory diseases in humans or animals” (priority 2020, published 2024)
